Laboratory results: PMC11227536, “Modulation of the Meisenheimer complex metabolism of nitro-benzothiazinones by targeted C-6 substitution” (Communications Chemistry, 2024)
Converted amounts (≈) assume the structure as drawn.

How the values were obtained:
[1] = system: Mycobacterium vaccae (JMRC:STI:10670); test: MIC determination; assay type: cell-based; details: for MIC: Mycolicibacterium vaccae, n = 1; for Selectivity index: ratio between CC50 (HeLa) and MIC M. vaccae
Protocol: (§1) Supplementary Method 5: Biological Assays
(§2) Minimal inhibitory concentrations were determined against Mycobacterium vaccae (JMRC:STI:10670) and Mycobacterium smegmatis (JMRC:STH:00056). M. vaccae and M. smegmatis cultures were grown 48 h at 32 °C in a medium consisting of glycerol (1%), beef extract (0.5%), peptone from casein (0.5%) and sodium chloride (0.3%). Serial dilutions of the DMSO test item solutions (1 mg∙mL -1) were prepared at 100 µL scale in 96 well plates in Mueller Hinton broth starting at 200 µg∙mL -1 (highest) to cover a final concentration range of 100 to 0.05 µg∙mL -1. Each plate was equipped with a series of DMSO and ciprofloxacin dilutions as quality controls. 96 well plates were inoculated with 100 µL diluted culture (Mueller Hinton bullion) at a final concentration of 5∙10 5 and incubated at 37 °C for 42 h. Growth/no growth was visually inspected.
(§3) 2. Proliferation and cytotoxicity assay
(§4) Cells and culture conditions
(§5) The following cell lines and media were used:
(§6) Cell line Cell culture medium
(§7) Cells were grown in the appropriate cell culture medium supplemented with 10 mL/L ultraglutamine 1 […]
(§8) heat inactivated fetal bovine serum (GIBCO Life Technologies 10270-106) at 37 °C in 5% CO 2 in high density polyethylene flasks (NUNC 156340).
(§9) To decide if the compounds have an antiproliferative and/or a cytotoxic effect on human cells, cell death and retardation of cell proliferation were assessed. Under our experimental conditions, the optical density measured from the CellTiter-Blue® reagent and methylene blue assay is proportional to the […]
(§10) The test substances were dissolved in DMSO and further diluted in the cell culture medium. The adherent cells were harvested at the logarithmic growth phase after soft trypsinization using 0.25% trypsin in PBS containing 0.02% EDTA (Biochrom KG L2163). For each experiment, approximately 10,000 cells were seeded with 0.1 mL culture medium per well of the 96-well microplates (HUVEC: flat bottomed NUNC 167008, K-562: round bottomed NUNC 163320). To test the antiproliferative

[2] = system: Mycobacterium smegmatis (JMRC:STH:00056); test: MIC determination; assay type: cell-based; details: Mycolicibacterium smegmatis; n = 1
Protocol: as §1
as §2, with “inspected. […]” for “inspected.”

Cytotoxicity assay = assay type: cell-based; details: human, n = 4
Protocol: (§11) Supplementary Method 5: Biological Assays […]
as §3, §4, §5, §6, §7, §8, §9
as §10, with “To test the antiproliferative” left out
For the cytotoxicity assay, HeLa cells were preincubated for 48 hours without the test substances. To test the cytotoxic effect on HeLa, dilutions of the compounds were carried out carefully on the subconfluent monolayers of HeLa cells after the preincubation time. After incubation time, the cytolytic effect of compounds was analysed in comparison to the negative control. The 50% cytotoxic concentration (CC 50 ) was defined as the test compound concentration required for destruction of the cell monolayer by 50% compared to untreated control.
(§12) Cells were incubated with dilutions of the test substances in microplates for 72 hours at 37 °C in a humidified atmosphere and 5% CO 2. […]
(§13) cytotoxicity and the inhibition of cell proliferation. The number of viable cells was determined subsequent to staining with CellTiter-Blue® reagent or methylene blue. […]
(§14) HUVEC and HeLa cells: The adherent HUVEC and HeLa cells were fixed by glutaraldehyde (MERCK […]
(§15) gently washing, the stain was eluted by adding 0.2 mL of hydrochloric acid (0.33 M) to each well. The optical densities were measured at 660 nm (methylene blue) in SUNRISE microplate reader (TECAN).
(§16) General remarks: Signals from the methylene blue and CellTiter-Blue® reagent are proportional to the number of viable cells. A repeat determination has been conducted in all experiments, four replicates were assayed. The calculations of the different values of GI 50 and CC 50 were performed with the software

HUVEC = test: Proliferation assay; assay type: cell-based; details: Homo sapiens, 72 h, n = 4
Protocol: as §11, §3, §4, §5, §6, §7, §8, §9
as §10, with “antiproliferative […]” for “antiproliferative”
(§17) effect of test compounds on HUVEC and K-562, the cells were incubated for 72 hours in plates prepared with control and different dilutions of test substances. […]
(§18) of proliferation compared to the untreated control. […]
as §12, §13, §14, §15, §16

K-562 = test: Proliferation assay; assay type: cell-based; details: Homo sapiens, K562; 72 h, n = 4
Protocol: as §11, §3, §4, §5, §6, §7, §8, §9
as §10, with “antiproliferative […]” for “antiproliferative”
as §17, §18, §12
cytotoxicity and the inhibition of cell proliferation. The number of viable cells was determined subsequent to staining with CellTiter-Blue® reagent or methylene blue.
K-562 cells: The influence of test substances on cell proliferation of K-562 was determined via the CellTiter-Blue® assay (PROMEGA). Briefly, viable cells are able to reduce the indicator dye resazurin […]
dye. Thus, formation of resorufin was followed by measuring absorption at 570 nm and subtracting absorption measured at 600 nm. […]
as §16

[3] = set-up: method as in PMID 28097740; details: preclinical studies ref 12; cited from earlier work

SMILES	MIC [1] [µM]	Selectivity index [1]	MIC [2] [µM]	CC50 at 72 h (Cytotoxicity assay) [µM]	GI50 (HUVEC) [µM]	GI50 (K-562) [µM]	HMC formation in vivo (in words) [3]
C[C@H]1COC2(CCN(c3nc(=O)c4cc(C(F)(F)F)cc([N+](=O)[O-])c4s3)CC2)O1 [Compound 1, reference compound]	0.004 (≈ 0.00173 µg/mL)	> 31248	0.058 (≈ 0.025 µg/mL)	> 116	> 116	> 116	significant hydride-Meisenheimer complex (HMC) formation in vivo
CCOC(=O)c1cc([N+](=O)[O-])c2sc(N3CCC4(CC3)OC[C@H](C)O4)nc(=O)c2c1 [Compound 6b]	1.79 (≈ 0.779 µg/mL)	> 64	57.4 (≈ 25 µg/mL)	> 115	49.1 ± 1.1	50.7 ± 6.9	
C[C@H]1COC2(CCN(c3nc(=O)c4cc(C(=O)OCCO)cc([N+](=O)[O-])c4s3)CC2)O1 [Compound 6d]	13.8 (≈ 6.23 µg/mL)	> 8	55.4 (≈ 25 µg/mL)	> 111	73.3 ± 4.2	17.9 ± 1.1	
C[C@H]1COC2(CCN(c3nc(=O)c4cc(C(=O)OCCI)cc([N+](=O)[O-])c4s3)CC2)O1 [Compound 6e]	2.78 (≈ 1.56 µg/mL)	28	44.5 (≈ 25 µg/mL)	78.2 ± 1.4	30.8 ± 0.5	27.6 ± 0.9	
C[C@H]1COC2(CCN(c3nc(=O)c4cc(C(=O)OCCOC(=O)c5cc([N+](=O)[O-])c6sc(N7CCC8(CC7)OC[C@H](C)O8)nc(=O)c6c5)cc([N+](=O)[O-])c4s3)CC2)O1 [Compound 6f]	14.9 (≈ 12.5 µg/mL)	> 4	119 (≈ 100 µg/mL)	> 59.4	> 59	> 59	
C[C@H]1COC2(CCN(c3nc(=O)c4cc(C(N)=O)cc([N+](=O)[O-])c4s3)CC2)O1 [Compound 7a]	61.5 (≈ 25 µg/mL)	> 2	123 (≈ 50 µg/mL)	> 123	> 123	> 123	
CNC(=O)c1cc([N+](=O)[O-])c2sc(N3CCC4(CC3)OC[C@H](C)O4)nc(=O)c2c1 [Compound 7b]	59.5 (≈ 25 µg/mL)	> 2	119 (≈ 50 µg/mL)	> 119	> 119	> 119	
C[C@H]1COC2(CCN(c3nc(=O)c4cc(C(=O)NCCO)cc([N+](=O)[O-])c4s3)CC2)O1 [Compound 7d]	27.7 (≈ 12.5 µg/mL)	> 4	111 (≈ 50 µg/mL)	> 111	> 111	> 111	
C[C@H]1COC2(CCN(c3nc(=O)c4cc(C5=NCCO5)cc([N+](=O)[O-])c4s3)CC2)O1 [Compound 7e]	14.5 (≈ 6.27 µg/mL)	> 8	28.9 (≈ 12.5 µg/mL)	> 116	> 116	> 116	
